The values that follow come from ChEMBL document CHEMBL1130709, “Synthesis and phototoxic property of tetra- and octa-glycoconjugated tetraphenylchlorins” (Bioorg Med Chem Lett, 1998).

The test is described as follows: Photosensitizing ability was evaluated by the degradation of DPBF by singlet oxygen in DMSO solution at 27 degree Centigrade.
Turning to `OC[C@@H]1O[C@H](Oc2ccc(-c3c4nc(c(-c5ccc(O[C@@H]6O[C@H](CO)[C@@H](O)[C@H](O)[C@H]6O)cc5)c5nc(c(-c6ccc(O[C@@H]7O[C@H](CO)[C@@H](O)[C@H](O)[C@H]7O)cc6)c6ccc([nH]6)c(-c6ccc(O[C@H]7O[C@@H](CO)[C@H](O)[C@@H](O)[C@@H]7O)cc6)c6ccc3[nH]6)CC5)C=C4)cc2)[C@@H](O)[C@H](O)[C@H]1O`, the k obs is 0.0094 s⁻¹.

As for `OC[C@@H]1O[C@H](Oc2cc(O[C@H]3O[C@@H](CO)[C@H](O)[C@@H](O)[C@@H]3O)cc(-c3c4nc(c(-c5cc(O[C@@H]6O[C@H](CO)[C@@H](O)[C@H](O)[C@H]6O)cc(O[C@@H]6O[C@H](CO)[C@@H](O)[C@H](O)[C@H]6O)c5)c5nc(c(-c6cc(O[C@@H]7O[C@H](CO)[C@@H](O)[C@H](O)[C@H]7O)cc(O[C@@H]7O[C@H](CO)[C@@H](O)[C@H](O)[C@H]7O)c6)c6ccc([nH]6)c(-c6cc(O[C@@H]7O[C@H](CO)[C@@H](O)[C@H](O)[C@H]7O)cc(O[C@@H]7O[C@H](CO)[C@@H](O)[C@H](O)[C@H]7O)c6)c6ccc3[nH]6)CC5)C=C4)c2)[C@@H](O)[C@H](O)[C@H]1O`, the k obs came to 0.011 s⁻¹.

As to `CC(=O)OC[C@@H]1O[C@H](Oc2cc(O[C@@H]3O[C@H](COC(C)=O)[C@@H](OC(C)=O)[C@H](OC(C)=O)[C@H]3OC(C)=O)cc(-c3c4nc(c(-c5cc(O[C@H]6O[C@@H](COC(C)=O)[C@H](OC(C)=O)[C@@H](OC(C)=O)[C@@H]6OC(C)=O)cc(O[C@H]6O[C@@H](COC(C)=O)[C@H](OC(C)=O)[C@@H](OC(C)=O)[C@@H]6OC(C)=O)c5)c5ccc([nH]5)c(-c5cc(O[C@H]6O[C@@H](COC(C)=O)[C@H](OC(C)=O)[C@@H](OC(C)=O)[C@@H]6OC(C)=O)cc(O[C@@H]6O[C@H](COC(C)=O)[C@@H](OC(C)=O)[C@H](OC(C)=O)[C@H]6OC(C)=O)c5)c5ccc([nH]5)c(-c5cc(O[C@@H]6O[C@H](COC(C)=O)[C@@H](OC(C)=O)[C@H](OC(C)=O)[C@H]6OC(C)=O)cc(O[C@@H]6O[C@H](COC(C)=O)[C@@H](OC(C)=O)[C@H](OC(C)=O)[C@H]6OC(C)=O)c5)c5nc3CC5)C=C4)c2)[C@@H](OC(C)=O)[C@H](OC(C)=O)[C@H]1OC(C)=O`, the k obs was 0.011 s⁻¹.

With `CC(=O)OC[C@@H]1O[C@H](Oc2ccc(-c3c4nc(c(-c5ccc(O[C@@H]6O[C@H](COC(C)=O)[C@H](OC(C)=O)[C@H](OC(C)=O)[C@H]6OC(C)=O)cc5)c5nc(c(-c6ccc(O[C@@H]7O[C@H](COC(C)=O)[C@H](OC(C)=O)[C@H](OC(C)=O)[C@H]7OC(C)=O)cc6)c6ccc([nH]6)c(-c6ccc(O[C@H]7O[C@@H](COC(C)=O)[C@@H](OC(C)=O)[C@@H](OC(C)=O)[C@@H]7OC(C)=O)cc6)c6ccc3[nH]6)CC5)C=C4)cc2)[C@@H](OC(C)=O)[C@H](OC(C)=O)[C@@H]1OC(C)=O`, the k obs was 0.0068 s⁻¹.

Regarding `OC[C@@H]1O[C@H](Oc2ccc(-c3c4nc(c(-c5ccc(O[C@@H]6O[C@H](CO)[C@H](O)[C@H](O)[C@H]6O)cc5)c5nc(c(-c6ccc(O[C@@H]7O[C@H](CO)[C@H](O)[C@H](O)[C@H]7O)cc6)c6ccc([nH]6)c(-c6ccc(O[C@H]7O[C@@H](CO)[C@@H](O)[C@@H](O)[C@@H]7O)cc6)c6ccc3[nH]6)CC5)C=C4)cc2)[C@@H](O)[C@H](O)[C@@H]1O`, the k obs was determined as 0.0062 s⁻¹.

On to `CC(=O)OC[C@@H]1O[C@H](Oc2ccc(-c3c4nc(c(-c5ccc(O[C@@H]6O[C@H](COC(C)=O)[C@@H](OC(C)=O)[C@H](OC(C)=O)[C@H]6OC(C)=O)cc5)c5nc(c(-c6ccc(O[C@@H]7O[C@H](COC(C)=O)[C@@H](OC(C)=O)[C@H](OC(C)=O)[C@H]7OC(C)=O)cc6)c6ccc([nH]6)c(-c6ccc(O[C@H]7O[C@@H](COC(C)=O)[C@H](OC(C)=O)[C@@H](OC(C)=O)[C@@H]7OC(C)=O)cc6)c6ccc3[nH]6)CC5)C=C4)cc2)[C@@H](OC(C)=O)[C@H](OC(C)=O)[C@H]1OC(C)=O`, for which the k obs worked out at 0.012 s⁻¹.
